Patent US11498899B2, “Nitrone herbicides” (FMC Corporation, priority 2016, dated 2022)

How the values were obtained:
[1] = test system: ragweed (common ragweed, Ambrosia elatior); assay: Test A postemergence, visual injury rating 0-100; type: in vivo; details: 0 to 100 scale
[2] = test system: wheat (Triticum aestivum); assay: Test A postemergence, visual injury rating 0-100; type: in vivo; details: 0 to 100 scale
[3] = test system: ryegrass, Italian (Italian ryegrass, Lolium multiflorum); assay: Test A postemergence, visual injury rating 0-100; type: in vivo; details: 0 to 100 scale
[4] = test system: galium (catchweed bedstraw, Galium aparine); assay: Test A postemergence, visual injury rating 0-100; type: in vivo; details: 0 to 100 scale
[5] = test system: foxtail, giant (giant foxtail, Setaria faberii); assay: Test A postemergence, visual injury rating 0-100; type: in vivo; details: 0 to 100 scale
[6] = test system: blackgrass (Alopecurus myosuroides); assay: Test A postemergence, visual injury rating 0-100; type: in vivo; details: 0 to 100 scale
[7] = test system: pigweed (Amaranthus retroflexus); assay: Test A postemergence, visual injury rating 0-100; type: in vivo; details: 0 to 100 scale
kochia (Kochia scoparia) [8] = assay: Test A postemergence, visual injury rating 0-100; type: in vivo; details: 0 to 100 scale
corn (Zea mays) = assay: Test A postemergence, visual injury rating 0-100; type: in vivo; details: 0 to 100 scale
[9] = test system: barnyardgrass (Echinochloa crus-galli); assay: Test A postemergence, visual injury rating 0-100; type: in vivo; details: 0 to 100 scale
[10] = test system: ducksalad (Heteranthera limosa); assay: Test B flooded paddy test, visual rating 0-100; details: Flood, 250 g ai/ha, applied to paddy water, rated after 13 to 15 days
[11] = test system: barnyardgrass (Echinochloa crus-galli); assay: Test B flooded paddy test, visual rating 0-100; details: Flood, 250 g ai/ha, applied to paddy water, rated after 13 to 15 days
[12] = test system: ragweed (common ragweed, Ambrosia elatior); assay: Test A preemergence, visual injury rating 0-100; type: in vivo
[13] = test system: ryegrass, Italian (Italian ryegrass, Lolium multiflorum); assay: Test A preemergence, visual injury rating 0-100; type: in vivo
[14] = test system: foxtail, giant (giant foxtail, Setaria faberii); assay: Test A preemergence, visual injury rating 0-100; type: in vivo
[15] = test system: pigweed (Amaranthus retroflexus); assay: Test A preemergence, visual injury rating 0-100; type: in vivo
kochia (Kochia scoparia) [16] = assay: Test A preemergence, visual injury rating 0-100; type: in vivo
[17] = test system: barnyardgrass (Echinochloa crus-galli); assay: Test A preemergence, visual injury rating 0-100 (0 no effect, 100 complete control); type: in vivo
rice (Oryza sativa) = assay: Test B flooded paddy test, visual rating 0-100 (0 no effect, 100 complete control); details: Flood, 250 g ai/ha, applied to paddy water, rated after 13 to 15 days

Row | Compound | Ragweed plant response rating ([1]; 125 g ai/ha) | Ragweed plant response rating ([1]; 500 g ai/ha) | Wheat plant response rating ([2]; 125 g ai/ha) | Wheat plant response rating ([2]; 500 g ai/ha) | Ryegrass, Italian plant response rating ([3]; 125 g ai/ha) | Ryegrass, Italian plant response rating ([3]; 500 g ai/ha) | Galium plant response rating ([4]; 125 g ai/ha) | Galium plant response rating ([4]; 500 g ai/ha) | Foxtail, Giant plant response rating ([5]; 125 g ai/ha) | Foxtail, Giant plant response rating ([5]; 500 g ai/ha) | Blackgrass plant response rating ([6]; 125 g ai/ha) | Blackgrass plant response rating ([6]; 500 g ai/ha) | Pigweed plant response rating ([7]; 125 g ai/ha) | Pigweed plant response rating ([7]; 500 g ai/ha) | Kochia plant response rating (kochia (Kochia scoparia) [8]; 125 g ai/ha) | Kochia plant response rating (kochia (Kochia scoparia) [8]; 500 g ai/ha) | Corn plant response rating (corn (Zea mays); 125 g ai/ha) | Corn plant response rating (corn (Zea mays); 500 g ai/ha) | Barnyardgrass plant response rating ([9]; 125 g ai/ha) | Barnyardgrass plant response rating ([9]; 500 g ai/ha) | other results
1 | CC1=[N+]([O-])C(C(=O)Nc2cccc(F)c2F)C(c2ccc(Br)cn2)C1 (racemic) [Compound 66] | 0 | 0 | 0 | 0 | 0 | 0 | 0 | 0 | 0 | 0 | 0 | 0 | 0 | 0 | 0 | 0 | 0 | 0 | 0 | 0 | Ducksalad plant response rating (0 to 100 scale) [10]: 75; Barnyardgrass plant response rating (0 to 100 scale) [11]: 35; Ragweed plant response rating (0 to 100 scale) ([12]; 125 g ai/ha): 0; Ragweed plant response rating (0 to 100 scale) ([12]; 500 g ai/ha): 0; Ryegrass, Italian plant response rating (0 to 100 scale) ([13]; 125 g ai/ha): 0; Ryegrass, Italian plant response rating (0 to 100 scale) ([13]; 500 g ai/ha): 0; Foxtail, Giant plant response rating (0 to 100 scale) ([14]; 125 g ai/ha): 10; Foxtail, Giant plant response rating (0 to 100 scale) ([14]; 500 g ai/ha): 70; Pigweed plant response rating (0 to 100 scale) ([15]; 125 g ai/ha): 0; Pigweed plant response rating (0 to 100 scale) ([15]; 500 g ai/ha): 0; Kochia plant response rating (0 to 100 scale) (kochia (Kochia scoparia) [16]; 125 g ai/ha): 0; Kochia plant response rating (0 to 100 scale) (kochia (Kochia scoparia) [16]; 500 g ai/ha): 0; Barnyardgrass plant response rating (0 to 100 scale) ([17]; 125 g ai/ha): 0; Barnyardgrass plant response rating (0 to 100 scale) ([17]; 500 g ai/ha): 20; Rice plant response rating (0 to 100 scale) (rice (Oryza sativa)): 15
2 | COc1cccc(C2CC(C)=[N+]([O-])C2C(=O)Nc2cccc(F)c2F)n1 (racemic) [Compound 67] | 0 | 0 | 0 | 0 | 0 | 0 | 0 | 0 | 0 | 10 | 0 | 0 | 0 | 0 | 0 | 0 | 0 | 0 | 0 | 0 | Ducksalad plant response rating (0 to 100 scale) [10]: 65; Barnyardgrass plant response rating (0 to 100 scale) [11]: 15; Ragweed plant response rating (0 to 100 scale) ([12]; 125 g ai/ha): 0; Ragweed plant response rating (0 to 100 scale) ([12]; 500 g ai/ha): 0; Ryegrass, Italian plant response rating (0 to 100 scale) ([13]; 125 g ai/ha): 0; Ryegrass, Italian plant response rating (0 to 100 scale) ([13]; 500 g ai/ha): 0; Foxtail, Giant plant response rating (0 to 100 scale) ([14]; 125 g ai/ha): 0; Foxtail, Giant plant response rating (0 to 100 scale) ([14]; 500 g ai/ha): 60; Pigweed plant response rating (0 to 100 scale) ([15]; 125 g ai/ha): 0; Pigweed plant response rating (0 to 100 scale) ([15]; 500 g ai/ha): 0; Kochia plant response rating (0 to 100 scale) (kochia (Kochia scoparia) [16]; 125 g ai/ha): 0; Kochia plant response rating (0 to 100 scale) (kochia (Kochia scoparia) [16]; 500 g ai/ha): 0; Barnyardgrass plant response rating (0 to 100 scale) ([17]; 125 g ai/ha): 0; Barnyardgrass plant response rating (0 to 100 scale) ([17]; 500 g ai/ha): 70; Rice plant response rating (0 to 100 scale) (rice (Oryza sativa)): 15
3 | CC1=[N+]([O-])C(C(=O)Nc2cccc(F)c2F)C(c2ccc(F)cc2Oc2ncc(F)cn2)C1 (racemic) [Compound 68] | 0 | 0 | 30 | 80 | 20 | 90 | 30 | 40 | 0 | 90 | 70 | 70 | 0 | 30 | 0 | 30 | 20 | 90 | 0 | 40 | Ducksalad plant response rating (0 to 100 scale) [10]: 0; Barnyardgrass plant response rating (0 to 100 scale) [11]: 0; Ragweed plant response rating (0 to 100 scale) ([12]; 125 g ai/ha): 0; Ragweed plant response rating (0 to 100 scale) ([12]; 500 g ai/ha): 70; Ryegrass, Italian plant response rating (0 to 100 scale) ([13]; 125 g ai/ha): 20; Ryegrass, Italian plant response rating (0 to 100 scale) ([13]; 500 g ai/ha): 90; Foxtail, Giant plant response rating (0 to 100 scale) ([14]; 125 g ai/ha): 50; Foxtail, Giant plant response rating (0 to 100 scale) ([14]; 500 g ai/ha): 100; Pigweed plant response rating (0 to 100 scale) ([15]; 125 g ai/ha): 0; Pigweed plant response rating (0 to 100 scale) ([15]; 500 g ai/ha): 0; Kochia plant response rating (0 to 100 scale) (kochia (Kochia scoparia) [16]; 125 g ai/ha): 0; Kochia plant response rating (0 to 100 scale) (kochia (Kochia scoparia) [16]; 500 g ai/ha): 30; Barnyardgrass plant response rating (0 to 100 scale) ([17]; 125 g ai/ha): 20; Barnyardgrass plant response rating (0 to 100 scale) ([17]; 500 g ai/ha): 100; Rice plant response rating (0 to 100 scale) (rice (Oryza sativa)): 0
4 | CC1=[N+]([O-])C(C(=O)Nc2cccc(F)c2F)C(c2ccc(C)c(Br)c2)C1 (racemic) [Compound 71] | 0 | 50 | 20 | 70 | 60 | 80 | 30 | 50 | 40 | 60 | 40 | 70 | 20 | 10 | 10 | 50 | 70 | 90 | 80 | 90 | Ducksalad plant response rating (0 to 100 scale) [10]: 0; Barnyardgrass plant response rating (0 to 100 scale) [11]: 0; Ragweed plant response rating (0 to 100 scale) ([12]; 125 g ai/ha): 0; Ragweed plant response rating (0 to 100 scale) ([12]; 500 g ai/ha): 60; Ryegrass, Italian plant response rating (0 to 100 scale) ([13]; 125 g ai/ha): 30; Ryegrass, Italian plant response rating (0 to 100 scale) ([13]; 500 g ai/ha): 90; Foxtail, Giant plant response rating (0 to 100 scale) ([14]; 125 g ai/ha): 80; Foxtail, Giant plant response rating (0 to 100 scale) ([14]; 500 g ai/ha): 90; Pigweed plant response rating (0 to 100 scale) ([15]; 125 g ai/ha): 0; Pigweed plant response rating (0 to 100 scale) ([15]; 500 g ai/ha): 40; Kochia plant response rating (0 to 100 scale) (kochia (Kochia scoparia) [16]; 125 g ai/ha): 10; Kochia plant response rating (0 to 100 scale) (kochia (Kochia scoparia) [16]; 500 g ai/ha): 80; Barnyardgrass plant response rating (0 to 100 scale) ([17]; 125 g ai/ha): 90; Barnyardgrass plant response rating (0 to 100 scale) ([17]; 500 g ai/ha): 90; Rice plant response rating (0 to 100 scale) (rice (Oryza sativa)): 0
